# Experimental data: patent publication US10583124B2, “Wild bird treatment composition and methods” (priority 2016, dated 2020)
# Like-named read-outs stand apart in the source and are kept apart here.
# Assays:
# [1] = assay type: physicochemical; conditions: in acetonitrile, positive control, 1 hour
# Method: Composition 10 was exposed to elevated temperature (75° C.) for 1 hour to determine if fenbendazole inside composition 10 was being protected from the effects of high temperature. Control composition 10 was left at room temperature for the same time period. Additionally, 100 ppm fenbendazole in acetonitrile was used as a positive control and exposed to the same conditions (room and elevated temperature for 1 hour).
# [2] = as long as protected from photo oxidation; cited from earlier work
structure (smiles),measurement,setting,value
COC(=O)Nc1nc2ccc(Sc3ccccc3)cc2[nH]1 [fenbendazole],Fenbendazole extracted from 100 ppm fenbendazole solution,[1]; 21 °C (room temperature),115.18 ppm
same,Fenbendazole extracted from 100 ppm fenbendazole solution,[1]; 75 °C,93.36 ppm
same,humidity range in which stable,[2],10-100%
same,temperature range in which stable,[2],4.4-37.7 °C
